According to publication PMC8157715 (2020):

Assays:
[1] = system: Wide-type adenosine Apt (wild-type aptamer) (DNA, aptamer) ACCTGGGGGAGTATTGCGGAGGAAGGT; experiment: SYBR Green I fluorescence; details: 100 mM NaCl, 5 mM MgCl2, 20 mM HEPES pH 7.6, 2 mM
[2] = system: A10-excised Apt (DNA, aptamer) GTATTGCGGAGGAAGGTTTTTAACCTTCGGGG; experiment: SYBR Green I fluorescence; details: 100 mM NaCl, 5 mM MgCl2; 20 mM HEPES pH 7.6; SYBR Green I displaced; 2 mM
[3] = system: Duplex-2 (DNA, hairpin) GTATTGCGCCCCGAAGGTTTTTAACCTTCGGGG; experiment: SYBR Green I fluorescence; details: 100 mM NaCl, 5 mM MgCl2; 20 mM HEPES pH 7.6; 12.5 nM SYBR Green I; 2 mM
[4] = system: Res-A10-Right cut (DNA, aptamer) GTATTGCGGAGGAAGGTTTTTAACCTTCGGGGA; experiment: SYBR Green I fluorescence; details: 100 mM NaCl, 5 mM MgCl2; 20 mM HEPES pH 7.6; SYBR Green I displaced; 2 mM
[5] = system: Res-A10-Left cut (DNA, aptamer) AGTATTGCGGAGGAAGGTTTTTAACCTTCGGGG; experiment: SYBR Green I fluorescence titration; details: 100 mM NaCl, 5 mM MgCl2; 20 mM HEPES pH 7.6; SYBR Green I (50 nM) displaced; apparent
[6] = system: Res-A10-Right cut (DNA, aptamer) GTATTGCGGAGGAAGGTTTTTAACCTTCGGGGA; experiment: ITC; details: 100 mM NaCl, 5 mM MgCl2, 20 mM HEPES pH 7.6, 10 °C
[7] = system: A10-excised Apt (DNA, aptamer) GTATTGCGGAGGAAGGTTTTTAACCTTCGGGG; experiment: ITC; details: 100 mM NaCl, 5 mM MgCl2, 20 mM HEPES pH 7.6, 10 °C
[8] = system: A10-excised Apt (DNA, aptamer) GTATTGCGGAGGAAGGTTTTTAACCTTCGGGG; experiment: SYBR Green I fluorescence titration; details: 100 mM NaCl, 5 mM MgCl2, 20 mM HEPES pH 7.6
[9] = system: Res-A10-Right cut (DNA, aptamer) GTATTGCGGAGGAAGGTTTTTAACCTTCGGGGA; experiment: SYBR Green I fluorescence titration; details: 100 mM NaCl, 5 mM MgCl2, 20 mM HEPES pH 7.6
[10] = system: One-site Apt (DNA, aptamer) ACCTTCGGGGAGTATTGCGGAGGAAGGT; experiment: ITC; details: 100 mM NaCl, 5 mM MgCl2; 20 mM HEPES pH 7.6, 10 °C, one-site model
[11] = system: Duplex-1 (DNA, hairpin) GGGGGTATTGCCCCCGCAAGGTTTTTAACCTTG; experiment: SYBR Green I fluorescence; details: 100 mM NaCl, 5 mM MgCl2; 20 mM HEPES pH 7.6; 12.5 nM SYBR Green I; 2 mM
[12] = system: Res-A10-Left cut (DNA, aptamer) AGTATTGCGGAGGAAGGTTTTTAACCTTCGGGG; experiment: SYBR Green I fluorescence; details: 100 mM NaCl, 5 mM MgCl2; 20 mM HEPES pH 7.6; SYBR Green I displaced; drop two thirds of adenosine's
[13] = SYBR Green I (50 nM) displaced, apparent
[14] = 1 mM AMP in syringe, extremely weak, undetectable heat

Cn1c(=O)c2[nH]cnc2n(C)c1=O
binding ([1]; SYBR Green I displaced): no | binding [2]: no

Nc1ccn([C@@H]2O[C@H](CO)[C@@H](O)[C@H]2O)c(=O)n1
binding [3]: no | binding ([1]; SYBR Green I displaced): no | binding [4]: no | binding [2]: no

Nc1nc2c(ncn2[C@@H]2O[C@H](CO)[C@@H](O)[C@H]2O)c(=O)[nH]1
binding ([1]; SYBR Green I displaced): no | binding [2]: no

Nc1ncnc2c1ncn2[C@@H]1O[C@H](CO)[C@@H](O)[C@H]1O
binding [3]: no | Kd [5]: 570 µM | Kd ([6]; one-site model): 21.0 ± 3.8 µM | Kd ([7]; one-site model): 14.8 ± 2.1 µM | Kd [8, 13]: 370 µM | half saturation [9, 13]: 0.94 mM | Kd [10]: 2.8 ± 0.1 µM | binding ([1]; 50 nM SYBR Green I displaced): yes | binding [11]: no

Nc1ncnc2c1ncn2[C@@H]1O[C@H](COP(=O)(O)O)[C@@H](O)[C@H]1O
binding [6, 14]: no | binding [7, 14]: no | binding ([8]; SYBR Green I displaced, up to 2 mM): no | binding ([9]; SYBR Green I displaced, no binding in titration): no | Kd [10]: 13.5 ± 1.6 µM | binding ([1]; 50 nM SYBR Green I displaced): yes | binding [12]: yes

Nc1ncnc2c1ncn2[C@@H]1O[C@H](COP(=O)(O)OP(=O)(O)OP(=O)(O)O)[C@@H](O)[C@H]1O
binding ([1]; 50 nM SYBR Green I displaced): yes | binding [4]: no | binding [2]: no

O=c1ccn([C@@H]2O[C@H](CO)[C@@H](O)[C@H]2O)c(=O)[nH]1
binding ([1]; SYBR Green I displaced): no | binding [4]: no | binding [2]: no
